# In US20220073471A1 (JIANGSU HENGRUI MEDICINE CO., LTD., priority 2019, published 2022):
# Tests used:
# [1] = Pharmacokinetics assay in rats after intragastrical administration; format: in vivo; conditions: both sexes, Sprague-Dawley (SD), rat, plasma, po, 2 mg/kg; for Vd/F: read-out: Apparent distribution volume Vz/F; for AUC: read-out: Area under curve AUC; for bioavailability: read-out: Bioavailability F; for CL/F: read-out: Clearance CL/F; for half-life: read-out: Half-life T½ (converted); for Cmax: read-out: Plasma concentration Cmax; for MRT: read-out: Residence time MRT
# Method: Rats were used as test animals. The drug concentration in plasma at different time points was determined by LC/MS/MS method after intragastrical administration of the compounds of Example 2, Example 11, Example 12, Example 15, Example 31 and Example 33 to rats. The pharmacokinetic behavior of the compounds of the present disclosure was studied and evaluated in rats.
# Twenty-four healthy adult SD rats (half male and half female, equally divided into six groups, four rats per group) were purchased from Shanghai Jiesijie Laboratory Animal Co., LTD.
# A certain amount of the test compound was weighed, to which 5% of DMSO, 5% of tween 80 and 90% of normal saline were added to prepare a 0.2 mg/mL colorless, clear and transparent solution.
# After an overnight fast, SD rats were intragastrically administered the test compound at an administration dose of 2.0 mg/kg and an administration volume of 10.0 mL/kg.
# The rats were intragastrically administered the compounds of Example 2, Example 11, Example 12, Example 15, Example 31 and Example 33. 0.2 ml of blood was taken from the orbit before the administration and at 0.5, 1.0, 2.0, 4.0, 6.0, 8.0, 11.0 and 24.0 hours after the administration. The samples were stored in heparinized tubes, and centrifuged for 10 minutes at 10000 rpm and 4° C. to separate the blood plasma. The plasma samples were stored at −20° C. The rats were fed 2 hours after the administration.
# The content of the test compound in the plasma of rats after intragastrical administration of the test compound at different concentrations was determined: 25 μL of rat plasma at each time point after the administration was taken, to which 30 μL of the internal standard solution and 175 μL of acetonitrile were added. The resulting solution was vortex-mixed for 5 minutes, and centrifuged for 10 minutes (3700 rpm). 0.5 μL of the supernatant was taken from the plasma samples for LC/MS/MS analysis.
# [2] = target: T1, Nav1.8 ion channel stably expressed on HEK293 cells (Homo sapiens, UniProt Q9Y5Y9); experiment: Inhibitory activity on Nav1.8, manual patch clamp; format: cell-based; conditions: resting, clamped at -80 mV, 1 μM TTX, read-out: IC50 on inhibiting the Nav1.8 channel activity
# T1 construct: expressed in transfected cells; host or cells: HEK293
# T1 sequence (Q9Y5Y9 whole entry): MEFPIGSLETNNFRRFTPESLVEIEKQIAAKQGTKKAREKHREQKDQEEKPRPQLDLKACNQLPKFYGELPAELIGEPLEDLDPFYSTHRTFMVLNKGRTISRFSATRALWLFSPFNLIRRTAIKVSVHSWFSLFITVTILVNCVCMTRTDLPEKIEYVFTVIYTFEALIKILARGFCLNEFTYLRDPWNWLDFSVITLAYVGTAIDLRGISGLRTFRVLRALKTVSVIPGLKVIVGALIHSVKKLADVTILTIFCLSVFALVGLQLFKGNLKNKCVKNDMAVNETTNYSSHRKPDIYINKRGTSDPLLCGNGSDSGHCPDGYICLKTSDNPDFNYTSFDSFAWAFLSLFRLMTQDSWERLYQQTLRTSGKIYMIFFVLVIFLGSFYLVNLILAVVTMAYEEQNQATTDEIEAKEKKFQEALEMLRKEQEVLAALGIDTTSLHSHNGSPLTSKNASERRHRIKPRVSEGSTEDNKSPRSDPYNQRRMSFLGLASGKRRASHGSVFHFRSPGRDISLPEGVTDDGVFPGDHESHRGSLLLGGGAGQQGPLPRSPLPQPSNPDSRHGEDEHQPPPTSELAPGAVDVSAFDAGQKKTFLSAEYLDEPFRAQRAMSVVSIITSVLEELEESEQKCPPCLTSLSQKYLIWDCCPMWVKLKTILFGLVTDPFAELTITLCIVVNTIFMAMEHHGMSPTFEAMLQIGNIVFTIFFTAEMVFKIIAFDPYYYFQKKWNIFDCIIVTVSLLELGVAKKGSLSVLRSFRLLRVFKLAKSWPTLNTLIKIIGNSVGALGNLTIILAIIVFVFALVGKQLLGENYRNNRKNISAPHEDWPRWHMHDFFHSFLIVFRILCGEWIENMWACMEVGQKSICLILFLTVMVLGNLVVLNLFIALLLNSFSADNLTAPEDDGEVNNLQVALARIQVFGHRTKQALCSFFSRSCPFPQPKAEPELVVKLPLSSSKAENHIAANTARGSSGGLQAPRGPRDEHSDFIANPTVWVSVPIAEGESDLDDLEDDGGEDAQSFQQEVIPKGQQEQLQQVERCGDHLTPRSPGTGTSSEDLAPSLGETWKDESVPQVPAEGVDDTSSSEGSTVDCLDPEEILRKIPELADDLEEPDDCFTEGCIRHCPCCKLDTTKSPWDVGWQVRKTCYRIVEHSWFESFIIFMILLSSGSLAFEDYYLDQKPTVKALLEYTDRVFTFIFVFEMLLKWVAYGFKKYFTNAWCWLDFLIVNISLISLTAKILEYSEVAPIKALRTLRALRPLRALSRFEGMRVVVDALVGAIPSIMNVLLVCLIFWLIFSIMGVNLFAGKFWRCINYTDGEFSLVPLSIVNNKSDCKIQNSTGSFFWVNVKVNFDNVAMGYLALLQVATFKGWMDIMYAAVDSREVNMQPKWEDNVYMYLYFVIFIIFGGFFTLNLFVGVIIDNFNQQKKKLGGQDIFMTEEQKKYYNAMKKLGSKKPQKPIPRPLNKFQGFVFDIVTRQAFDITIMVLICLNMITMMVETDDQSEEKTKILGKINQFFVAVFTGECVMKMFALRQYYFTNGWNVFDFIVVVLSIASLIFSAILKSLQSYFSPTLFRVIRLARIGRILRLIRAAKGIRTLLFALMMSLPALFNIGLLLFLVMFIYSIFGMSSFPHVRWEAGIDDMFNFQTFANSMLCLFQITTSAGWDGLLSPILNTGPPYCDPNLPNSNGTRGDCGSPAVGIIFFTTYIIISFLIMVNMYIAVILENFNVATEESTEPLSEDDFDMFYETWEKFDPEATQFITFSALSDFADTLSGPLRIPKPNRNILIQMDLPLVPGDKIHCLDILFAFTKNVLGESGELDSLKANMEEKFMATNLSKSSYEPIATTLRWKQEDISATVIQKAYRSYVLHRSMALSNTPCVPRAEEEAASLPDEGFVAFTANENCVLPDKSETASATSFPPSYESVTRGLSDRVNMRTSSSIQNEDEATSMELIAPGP
# Excerpt: The purpose of the experiment is to investigate the effect of the compounds on Nav1.8 ion channel in an in vitro experiment, wherein the Nav1.8 ion channel is stably expressed on HEK293 cells. After the Nav1.8 current becomes stable, the Nav1.8 currents before and after the administration of the compound are compared so as to obtain the effect of the compound on the Nav1.8 ion channel.
# Except for NaOH and KOH used for acid titration and base titration, all the compounds used for formulating the extracellular fluid and intracellular fluid were purchased from Sigma (St. Louis, Mo.). Extracellular fluid (mM): NaCl, 137; KCl, 4; CaCl2), 1.8; MgCl2, 1; HEPES, 10; glucose, 10; pH 7.4 (NaOH titration). Intracellular fluid (mM): aspartic acid, 140; MgCl2, 2; EGTA, 11; HEPES, 10; pH 7.2 (CsOH titration). All solutions of test compound and control compound contained 1 μM TTX.
# The test compound was dissolved in dimethyl sulfoxide (DMSO) at a stock concentration of 9 mM. The stock solution of the test compound was dissolved in the extracellular fluid on the day of the test and formulated into the required concentration.
# 1) The compound was formulated into solutions with specified concentrations, the solutions were added to the pipelines respectively in order from low to high concentration, and the pipelines were marked.
# 2) The cell was transferred to the perfusion tank. A positive pressure was applied to the electrode. The tip of the electrode touched the cell. The three-way valve of the air extracting device was adjusted to a three-way state. A negative pressure was applied to the electrode, so that a high-resistance seal was formed between the electrode and the cell.
# The negative pressure was applied continuously, thereby causing the cell membrane to rupture and forming a current path.
# 3) After the current for rupturing the cell membrane became stable, perfusion of different concentrations was carried out in sequence. Once the current was stable for at least one minute, perfusion of the next concentration was carried out.
# 4) The perfusion tank was cleaned. The perfusion tank was rinsed with the drug solutions in order from high to low concentration, and the rinse duration for each concentration of drug solution was 20 seconds. The perfusion tank was finally rinsed with the extracellular fluid for 1 minute.
# The cell was clamped at −80 mV. The cell was depolarized to 10 mV with a square wave lasting 10 milliseconds to obtain the Nav1.8 current. This procedure was repeated every 5 seconds. The maximum current caused by the square wave was measured. After the current became stable, the test compound was perfused. After the response became stable, the blocking intensity was calculated.
# The data was stored in the computer system for analysis. Data collection and analysis were carried out by pCLAMP 10 (Molecular Devices, Union City, Calif.), and the analysis results were reviewed by the administrator. Stable current means that the current changes within a limited range over time. The magnitude of stable current was used to calculate the effect of the compound at the concentration.
SMILES,Vd/F [1] [L/kg],AUC [1] [ng·h/mL],bioavailability [1] [%],CL/F [1] [mL/min/kg],half-life [1] [h],Cmax [1] [ng/mL],MRT [1] [h],IC50 [2] [nM]
"O=C(Nc1cn[nH]c(=O)c1)c1cc(Cl)c(C(F)(F)F)cc1Oc1ccc(F)cc1OC1CC1 [Example 12, 5-Chloro-2-(2-cyclopropoxy-4-fluorophenoxy)-N-(6-oxo-1,6-dihydropyridazin-4-yl)-4-(trifluoromethyl)benzamide]",4.17 ± 0.587,5980 ± 1130,111,4.3 ± 1.65,13.2 ± 7.8,435 ± 64,19.8 ± 10.4,0.26
"O=C(Nc1cn[nH]c(=O)c1)c1cc(Cl)c(C(F)(F)F)cc1Oc1ccc(F)cc1OC(F)(F)F [Example 15, 5-Chloro-2-(4-fluoro-2-(trifluoromethoxy)phenoxy)-N-(6-oxo-1,6-dihydropyridazin-4-yl)-4-(trifluoromethyl)benzamide]",7.15 ± 0.682,5690 ± 552,94,1.46 ± 0.11,56.7 ± 6.6,295 ± 44,82.4 ± 10.2,4.7
"O=C(Nc1cn[nH]c(=O)c1)c1cc(Cl)c(C(F)(F)F)cc1Oc1ccc(F)cc1C1CC1 [Example 31, 5-Chloro-2-(2-cyclopropyl-4-fluorophenoxy)-N-(6-oxo-1,6-dihydropyridazin-4-yl)-4-(trifluoromethyl)benzamide]",5.44 ± 0.705,5620 ± 1230,66,3.77 ± 2.7,33.3 ± 34.8,360 ± 65,48.3 ± 50.3,0.94
"[2H]C([2H])([2H])Oc1cc(F)ccc1Oc1cc(C(F)(F)F)c(Cl)cc1C(=O)Nc1cn[nH]c(=O)c1 [Example 35, 5-Chloro-2-(4-fluoro-2-(methoxy-d3)phenoxy)-N-(6-oxo-1,6-dihydropyridazin-4-yl)-4-(trifluoromethyl)benzamide]",5.01 ± 0.875,4330 ± 910,107,7.93 ± 1.47,7.5 ± 1.92,392 ± 43,10.6 ± 2.3,0.54
"Cc1cc(F)ccc1Oc1cc(C(F)(F)F)c(Cl)cc1C(=O)Nc1cn[nH]c(=O)c1 [Example 2, 5-Chloro-2-(4-fluoro-2-methylphenoxy)-N-(6-oxo-1,6-dihydropyridazin-4-yl)-4-(trifluoromethyl)benzamide]",4.71 ± 1.29,5960 ± 4280,149,6.24 ± 6.29,47 ± 54.6,399 ± 153,68.2 ± 78.3,1.3
"COc1cc(F)ccc1Oc1cc(C(F)(F)F)c(Cl)cc1C(=O)Nc1cn[nH]c(=O)c1 [Example 11, 5-Chloro-2-(4-fluoro-2-methoxyphenoxy)-N-(6-oxo-1,6-dihydropyridazin-4-yl)-4-(trifluoromethyl)benzamide]",5.33 ± 0.72,1230 ± 621,98,32.3 ± 15.2,2.3 ± 1.14,218 ± 103,–,1.3
"[2H]C([2H])([2H])c1cc(F)ccc1Oc1cc(C(F)(F)F)c(Cl)cc1C(=O)Nc1cn[nH]c(=O)c1 [Example 44, 5-Chloro-2-(4-fluoro-2-(methyl-d3)phenoxy)-N-(6-oxo-1,6-dihydropyridazin-4-yl)-4-(trifluoromethyl)benzamide]",–,–,–,–,–,–,–,4.04
"Cc1cc(F)ccc1Oc1cc(C(F)(F)F)cc(C(F)(F)F)c1C(=O)Nc1cn[nH]c(=O)c1 [Example 29, 2-(4-Fluoro-2-methylphenoxy)-N-(6-oxo-1,6-dihydropyridazin-4-yl)-4,6-bis(trifluoromethyl)benzamide]",–,–,–,–,–,–,–,90.4
"O=C(Nc1cn[nH]c(=O)c1)c1cc(Cl)c(C(F)(F)F)cc1Oc1ccc(F)cc1OC(F)F [Example 37, 5-Chloro-2-(2-(difluoromethoxy)-4-fluorophenoxy)-N-(6-oxo-1,6-dihydropyridazin-4-yl)-4-(trifluoromethyl)benzamide]",–,–,–,–,–,–,–,2.38
"COc1cc(F)ccc1Oc1ccc(C(F)(F)F)cc1C(=O)Nc1cn[nH]c(=O)c1 [Example 16, 2-(4-Fluoro-2-methoxyphenoxy)-N-(6-oxo-1,6-dihydropyridazin-4-yl)-5-(trifluoromethyl)benzamide]",–,–,–,–,–,–,–,17.9
"Cc1cc(F)ccc1Oc1cc(C(F)(F)C(F)(F)F)ccc1C(=O)Nc1cn[nH]c(=O)c1 [Example 5, 2-(4-Fluoro-2-methylphenoxy)-N-(6-oxo-1,6-dihydropyridazin-4-yl)-4-(perfluoroethyl)benzamide]",–,–,–,–,–,–,–,23.7
"CCOc1cc(F)ccc1Oc1cc(C(F)(F)F)c(Cl)cc1C(=O)Nc1cn[nH]c(=O)c1 [Example 32, 5-Chloro-2-(2-ethoxy-4-fluorophenoxy)-N-(6-oxo-1,6-dihydropyridazin-4-yl)-4-(trifluoromethyl)benzamide]",–,–,–,–,–,–,–,0.37
"Cc1cc(F)ccc1Oc1cc(C(F)(F)F)c(Br)cc1C(=O)Nc1cn[nH]c(=O)c1 [Example 33, 5-Bromo-2-(4-fluoro-2-methylphenoxy)-N-(6-oxo-1,6-dihydropyridazin-4-yl)-4-(trifluoromethyl)benzamide]",3.99 ± 0.788,5550 ± 3020,99,6.4 ± 5.57,18.6 ± 17.5,382 ± 88,27.7 ± 24.2,0.86
"Cc1cc(Oc2ccc(F)cc2C)c(C(=O)Nc2cn[nH]c(=O)c2)cc1Cl [Example 28, 5-Chloro-2-(4-fluoro-2-methylphenoxy)-4-methyl-N-(6-oxo-1,6-dihydropyridazin-4-yl)benzamide]",–,–,–,–,–,–,–,5.2
